Experimental data taken from PMC11538350, “Synthetic studies on the tetrasubstituted D-ring of cystobactamids lead to potent terephthalic acid antibiotics” (Communications Chemistry, 2024).
Converted amounts (≈) assume the structure as drawn.

system: not listed separately; test: metabolic stability assay, mouse microsomes; conditions: Table S4

| Compound | T1/2 MICROSOMES (M) |
| --- | --- |
| C#CC[C@H](NC(=O)c1ccc(NC(=O)c2ccc(C#N)cc2)cc1)C(=O)Nc1ccc(C(=O)Nc2ccc(C(=O)Nc3ccc(C(=O)O)cc3)c(F)c2OC(C)C)cc1 [Cmpd. 4] | > 60 min |

system: K. pneum. KP10581; test: MIC assay; assay type: cell-based; conditions: Klebsiella pneumoniae; read-out: MIC K. pneum. KP10581
Method: (§1) All cystobactamids were evaluated in MIC-assays on a panel of representative ESKAPE strains with focus on A. baumannii (Tables 1 and 2). Compared to our previous work[10],[17],[18], we specifically included more challenging test strains with known resistances against gyrase inhibitors.
(§2) 2.1 Materials and Methods
(§3) Strains were cultivated according to standard procedures. Bacterial cryo-cultures were
(§4) resuspended into fresh MHBII (cation adjusted) medium. The resuspension
(§5) assay plate (Corning, #3788).
(§6) in parallel as a positive control. […]

| Compound | MIC |
| --- | --- |
| C#CC[C@H](NC(=O)c1ccc(NC(=O)c2ccc(C#N)cc2)cc1)C(=O)Nc1ccc(C(=O)Nc2ccc(C(=O)Nc3ccc(C(=O)O)cc3)c(F)c2OC(C)C)cc1 [Cmpd. 4] | > 64 µg/mL |

system: A. baum. DSM-30008; test: MIC assay; assay type: cell-based; conditions: Acinetobacter baumannii, DSM30008; reference strain; read-out: MIC A. baum. DSM-30008
Method: as §1, §2, §3, §4, §5, §6

| Compound | MIC |
| --- | --- |
| C#CC[C@H](NC(=O)c1ccc(NC(=O)c2ccc(C#N)cc2)cc1)C(=O)Nc1ccc(C(=O)Nc2ccc(C(=O)Nc3ccc(C(=O)O)cc3)c(F)c2OC(C)C)cc1 [Cmpd. 4] | 0.06 µg/mL (≈ 0.0755 µM) |

system: S. aur. ATCC-29213; test: MIC assay; assay type: cell-based; conditions: Staphylococcus aureus, ATCC29213; reference strain; read-out: MIC S. aur. ATCC-29213
Method: as §1, §2, §3, §4, §5, §6

| Compound | MIC |
| --- | --- |
| C#CC[C@H](NC(=O)c1ccc(NC(=O)c2ccc(C#N)cc2)cc1)C(=O)Nc1ccc(C(=O)Nc2ccc(C(=O)Nc3ccc(C(=O)O)cc3)c(F)c2OC(C)C)cc1 [Cmpd. 4] | > 64 µg/mL |

system: S. pneum. DSM-11865 (PRSP); test: MIC assay; assay type: cell-based; conditions: Streptococcus pneumoniae; read-out: MIC S. pneum. DSM-11865 (PRSP)
Method: as §1, §2, §3, §4, §5, §6

| Compound | MIC |
| --- | --- |
| C#CC[C@H](NC(=O)c1ccc(NC(=O)c2ccc(C#N)cc2)cc1)C(=O)Nc1ccc(C(=O)Nc2ccc(C(=O)Nc3ccc(C(=O)O)cc3)c(F)c2OC(C)C)cc1 [Cmpd. 4] | > 64 µg/mL |

system: E. cloacae ATCC BAA-2468; test: MIC assay; assay type: cell-based; conditions: Enterobacter cloacae, ATCCBAA2468; read-out: MIC E. cloacae ATCC BAA-2468
Method: as §1, §2, §3, §4, §5, §6

| Compound | MIC |
| --- | --- |
| C#CC[C@H](NC(=O)c1ccc(NC(=O)c2ccc(C#N)cc2)cc1)C(=O)Nc1ccc(C(=O)Nc2ccc(C(=O)Nc3ccc(C(=O)O)cc3)c(F)c2OC(C)C)cc1 [Cmpd. 4] | > 64 µg/mL |

system: K. pneum. R-1525; test: MIC assay; assay type: cell-based; conditions: Klebsiella pneumoniae; read-out: MIC K. pneum. R-1525
Method: as §1, §2, §3, §4, §5, §6

| Compound | MIC |
| --- | --- |
| C#CC[C@H](NC(=O)c1ccc(NC(=O)c2ccc(C#N)cc2)cc1)C(=O)Nc1ccc(C(=O)Nc2ccc(C(=O)Nc3ccc(C(=O)O)cc3)c(F)c2OC(C)C)cc1 [Cmpd. 4] | > 64 µg/mL |

system: E. coli ATCC-25922; test: MIC assay; assay type: cell-based; conditions: Escherichia coli, ATCC25922; reference strain; read-out: MIC E. coli ATCC-25922
Method: as §1, §2, §3, §4, §5, §6

| Compound | MIC |
| --- | --- |
| C#CC[C@H](NC(=O)c1ccc(NC(=O)c2ccc(C#N)cc2)cc1)C(=O)Nc1ccc(C(=O)Nc2ccc(C(=O)Nc3ccc(C(=O)O)cc3)c(F)c2OC(C)C)cc1 [Cmpd. 4] | 4 µg/mL (≈ 5.03 µM) |

system: A. baum. R835; test: MIC assay; assay type: cell-based; conditions: Acinetobacter baumannii; read-out: MIC A. baum. R835
Method: as §1, §2, §3, §4, §5, §6

| Compound | MIC |
| --- | --- |
| C#CC[C@H](NC(=O)c1ccc(NC(=O)c2ccc(C#N)cc2)cc1)C(=O)Nc1ccc(C(=O)Nc2ccc(C(=O)Nc3ccc(C(=O)O)cc3)c(F)c2OC(C)C)cc1 [Cmpd. 4] | > 8 µg/mL |

system: E. coli LM705; test: MIC assay; assay type: cell-based; conditions: Escherichia coli, LM705, read-out: MIC E. coli LM705
Method: as §1, §2, §3, §4, §5, §6

| Compound | MIC |
| --- | --- |
| C#CC[C@H](NC(=O)c1ccc(NC(=O)c2ccc(C#N)cc2)cc1)C(=O)Nc1ccc(C(=O)Nc2ccc(C(=O)Nc3ccc(C(=O)O)cc3)c(F)c2OC(C)C)cc1 [Cmpd. 4] | > 64 µg/mL |

system: A. baum. ATCC BAA-1710; test: MIC assay; assay type: cell-based; conditions: Acinetobacter baumannii, ATCCBAA1710; read-out: MIC A. baum. ATCC BAA-1710
Method: as §1, §2, §3, §4, §5, §6

| Compound | MIC |
| --- | --- |
| C#CC[C@H](NC(=O)c1ccc(NC(=O)c2ccc(C#N)cc2)cc1)C(=O)Nc1ccc(C(=O)Nc2ccc(C(=O)Nc3ccc(C(=O)O)cc3)c(F)c2OC(C)C)cc1 [Cmpd. 4] | > 8 µg/mL |

system: A. baum. CIP-107292; test: MIC assay; assay type: cell-based; conditions: Acinetobacter baumannii, CIP107292; read-out: MIC A. baum. CIP-107292
Method: as §1, §2, §3, §4, §5, §6

| Compound | MIC |
| --- | --- |
| C#CC[C@H](NC(=O)c1ccc(NC(=O)c2ccc(C#N)cc2)cc1)C(=O)Nc1ccc(C(=O)Nc2ccc(C(=O)Nc3ccc(C(=O)O)cc3)c(F)c2OC(C)C)cc1 [Cmpd. 4] | > 8 µg/mL |

system: P. ae. PA14; test: MIC assay; assay type: cell-based; conditions: Pseudomonas aeruginosa, PA14; reference strain; read-out: MIC P. ae. PA14
Method: as §1, §2, §3, §4, §5, §6

| Compound | MIC |
| --- | --- |
| C#CC[C@H](NC(=O)c1ccc(NC(=O)c2ccc(C#N)cc2)cc1)C(=O)Nc1ccc(C(=O)Nc2ccc(C(=O)Nc3ccc(C(=O)O)cc3)c(F)c2OC(C)C)cc1 [Cmpd. 4] | > 64 µg/mL |

system: A. baum. CIP-105742; test: MIC assay; assay type: cell-based; conditions: Acinetobacter baumannii, CIP105742; read-out: MIC A. baum. CIP-105742
Method: as §1, §2, §3, §4, §5, §6

| Compound | MIC |
| --- | --- |
| C#CC[C@H](NC(=O)c1ccc(NC(=O)c2ccc(C#N)cc2)cc1)C(=O)Nc1ccc(C(=O)Nc2ccc(C(=O)Nc3ccc(C(=O)O)cc3)c(F)c2OC(C)C)cc1 [Cmpd. 4] | 0.25 to 0.5 µg/mL (≈ 0.315 to 0.629 µM) |

system: P. ae. PA14ΔmexAB; test: MIC assay; assay type: cell-based; conditions: Pseudomonas aeruginosa, read-out: MIC P. ae. PA14ΔmexAB
Method: as §1, §2, §3, §4, §5, §6

| Compound | MIC |
| --- | --- |
| C#CC[C@H](NC(=O)c1ccc(NC(=O)c2ccc(C#N)cc2)cc1)C(=O)Nc1ccc(C(=O)Nc2ccc(C(=O)Nc3ccc(C(=O)O)cc3)c(F)c2OC(C)C)cc1 [Cmpd. 4] | > 64 µg/mL |

system: K. pneum. CIP-104298; test: MIC assay; assay type: cell-based; conditions: Klebsiella pneumoniae, CIP104298; reference strain; read-out: MIC K. pneum. CIP-104298
Method: as §1, §2, §3, §4, §5, §6

| Compound | MIC |
| --- | --- |
| C#CC[C@H](NC(=O)c1ccc(NC(=O)c2ccc(C#N)cc2)cc1)C(=O)Nc1ccc(C(=O)Nc2ccc(C(=O)Nc3ccc(C(=O)O)cc3)c(F)c2OC(C)C)cc1 [Cmpd. 4] | > 64 µg/mL |

system: not given; test: not given; conditions: human plasma
Method: 2.1 Materials and Methods […]
Determination of in vitro ADME properties
7, 8, 11 and 42. All samples were analysed via HPLC -MS/MS.
HPLC-MS/MS analysis of cystobactamids
AB Sciex QTrap 6500plus mass spectrometer. LC conditions were as follows: column:
Samples were run under acidic
For plasma stability experiments, samples were procured from commercial sources.
Human plasma was obtained from Antibodies-online (catalog no. ABIN5706569), and mouse plasma was obtained from Tebubio (catalog no. D408-04-0050).
The methods were performed in accordance with relevant guidelines and regulations and approved by the Helmholtz Centre for Infection Research. […]

| Compound | T1/2 PLASMA (H) |
| --- | --- |
| C#CC[C@H](NC(=O)c1ccc(NC(=O)c2ccc(C#N)cc2)cc1)C(=O)Nc1ccc(C(=O)Nc2ccc(C(=O)Nc3ccc(C(=O)O)cc3)c(F)c2OC(C)C)cc1 [Cmpd. 4] | > 240 min |

same assay, conditions: mouse plasma

| Compound | T1/2 PLASMA (M) |
| --- | --- |
| C#CC[C@H](NC(=O)c1ccc(NC(=O)c2ccc(C#N)cc2)cc1)C(=O)Nc1ccc(C(=O)Nc2ccc(C(=O)Nc3ccc(C(=O)O)cc3)c(F)c2OC(C)C)cc1 [Cmpd. 4] | > 240 min |

system: not listed separately; test: metabolic stability assay, human microsomes; conditions: second microsome column of Table S4, head prints (M); mouse and human microsomes

| Compound | T1/2 MICROSOMES (M) |
| --- | --- |
| C#CC[C@H](NC(=O)c1ccc(NC(=O)c2ccc(C#N)cc2)cc1)C(=O)Nc1ccc(C(=O)Nc2ccc(C(=O)Nc3ccc(C(=O)O)cc3)c(F)c2OC(C)C)cc1 [Cmpd. 4] | > 60 min |

system: E. faec. DSM-17050 (VRE); test: MIC assay; assay type: cell-based, Enterococcus faecium; conditions: Enterococcus; read-out: MIC E. faec. DSM-17050 (VRE)
Method: as §1, §2, §3, §4, §5, §6

| Compound | MIC |
| --- | --- |
| C#CC[C@H](NC(=O)c1ccc(NC(=O)c2ccc(C#N)cc2)cc1)C(=O)Nc1ccc(C(=O)Nc2ccc(C(=O)Nc3ccc(C(=O)O)cc3)c(F)c2OC(C)C)cc1 [Cmpd. 4] | 4 µg/mL (≈ 5.03 µM) |

system: E. ae. CIP 106754; test: MIC assay; assay type: cell-based, Enterobacter aerogenes; conditions: Klebsiella aerogenes, CIP106754, read-out: MIC E. ae. CIP 106754
Method: as §1, §2, §3, §4, §5, §6

| Compound | MIC |
| --- | --- |
| C#CC[C@H](NC(=O)c1ccc(NC(=O)c2ccc(C#N)cc2)cc1)C(=O)Nc1ccc(C(=O)Nc2ccc(C(=O)Nc3ccc(C(=O)O)cc3)c(F)c2OC(C)C)cc1 [Cmpd. 4] | > 64 µg/mL |
